Assay results reported in patent US11629171B2, “Beta-hairpin peptidomimetics” (POLYPHOR AG, priority 2017, dated 2023).
In brackets after ≈: the same amount, converted by molar mass. Where a SMILES comes first, the peptide text is derived from it. Bridges are numbered along the chain shown (N, C = ends). Roman numbers before positions name the chains, in order. [ ]: non-standard residue; d: D form. dDab = NCC[C@@H](N)C(=O)O; hSer = N[C@@H](CCO)C(=O)O; Dab = NCC[C@H](N)C(=O)O; Nva = CCC[C@H](N)C(=O)O; Dap = NC[C@H](N)C(=O)O

How the values were obtained:
Assay type in all cases: cell-based
[1] = system: Pseudomonas aeruginosa ATCC 27853; conditions: ATCC 27853
Method in brief: (§1)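 CLSI broth microdilution: inoculum ~10^6 CFU/mL in cation-adjusted Mueller-Hinton II broth, with peptide in serial two-fold dilutions plus Polysorbate 80 (0.002% final). MIC (μg/mL) is the lowest concentration without visible growth after 18-20 hours at 35° C.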

[2] = system: Acinetobacter baumannii DSM 30008; conditions: DSM 30008
Method in brief: as §1

[3] = system: Escherichia coli ATCC 25922; conditions: ATCC 25922
Method in brief: as §1

Escherichia coli 926415 = conditions: 926415
Method in brief: as §1

[4] = system: Klebsiella pneumoniae 968733; conditions: 968733
Method in brief: as §1

[5] = system: Enterobacter cloacae 848840; conditions: 848840
Method in brief: as §1

[6] = system: Acinetobacter baumannii 872842; conditions: 872842
Method in brief: as §1

[7] = system: Klebsiella pneumoniae SSI #3010; conditions: SSI #3010
Method in brief: as §1

[8] = system: human red blood cells (hRBC); experiment: Hemolysis; conditions: red cells of human, 1 h, 200
Method in brief: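 Percent lysis of human red cells was derived from OD540 of the supernatant, referenced to 2% Triton X-100, after a 1 h, 37° C incubation of 20% (v/v) cells with 200 μg/mL peptide.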

Compound	Pseudomonas aeruginosa ATCC 27853 MIC [1] [µg/mL]	Acinetobacter baumannii DSM 30008 MIC [2] [µg/mL]	Escherichia coli ATCC 25922 MIC [3] [µg/mL]	MIC (Escherichia coli 926415) [µg/mL]	MIC [4] [µg/mL]	MIC [5] [µg/mL]	MIC [6] [µg/mL]	Klebsiella pneumoniae SSI #3010 MIC [7] [µg/mL]	Hemolysis at 200 μg/mL [8] [%]
CC(=O)N[C@H](C(=O)N[C@H]1CSSC[C@@H](C(=O)N[C@@H](CO)C(N)=O)NC(=O)[C@H](C(C)C)NC(=O)[C@H](CO)NC(=O)[C@H](Cc2c[nH]c3ccccc23)NC(=O)[C@@H](CO)NC(=O)[C@@H](CCN)NC(=O)[C@H](CCC(=O)N[C@@H](CCN)C(=O)N[C@H](C(=O)N[C@@H](CN)C(=O)N[C@H]2CCNC(=O)[C@H]([C@@H](C)O)NC(=O)[C@H](CCN)NC(=O)[C@H](CCN)NC(=O)[C@H](CC(C)C)NC(=O)[C@@H](CC(C)C)NC(=O)[C@H](CCN)NC2=O)[C@@H](C)O)NC(=O)[C@H](CCN)NC(=O)[C@H](Cc2ccc(O)cc2)NC1=O)C(C)C [Ex. 305] (I: Ac-VCY[Dab]E[dDab][dS]WSVCS-NH2 / II: [Dab]T[Dap][Dab][Dab][dL]L[Dab][Dab]T; disulfide I:2-I:11; amide I:5-II:N; lactam II:4-II:C)	0.125	0.0625	0.0625	0.25 (≈ 0.104 µM)	0.25 (≈ 0.104 µM)	0.25 (≈ 0.104 µM)	0.125 (≈ 0.0521 µM)	0.0625	3
CC(=O)N[C@H](C(=O)N[C@H]1CSSC[C@@H](C(=O)N[C@@H](CO)C(N)=O)NC(=O)[C@H](C(C)C)NC(=O)[C@H](CO)NC(=O)[C@H](Cc2c[nH]c3ccccc23)NC(=O)[C@H](CO)NC(=O)[C@@H](CCN)NC(=O)[C@H](CCC(=O)N[C@@H](CCN)C(=O)NCC(=O)N[C@@H](CN)C(=O)N[C@H]2CCNC(=O)[C@H]([C@@H](C)O)NC(=O)[C@H](CCN)NC(=O)[C@H](CCN)NC(=O)[C@H](CC(C)C)NC(=O)[C@@H](CC(C)C)NC(=O)[C@H](CCN)NC2=O)NC(=O)[C@H](CCN)NC(=O)[C@H](Cc2ccc(O)cc2)NC1=O)C(C)C [Ex. 307] (I: Ac-VCY[Dab]E[dDab]SWSVCS-NH2 / II: [Dab]G[Dap][Dab][Dab][dL]L[Dab][Dab]T; disulfide I:2-I:11; amide I:5-II:N; lactam II:4-II:C)	0.125	0.25	0.125	0.5 (≈ 0.212 µM)	1 (≈ 0.425 µM)	4 (≈ 1.7 µM)	0.5 (≈ 0.212 µM)	0.125	<1
CC(=O)N[C@H](C(=O)N[C@H]1CSSC[C@@H](C(=O)N[C@@H](CO)C(N)=O)NC(=O)[C@H](C(C)C)NC(=O)[C@H](CO)NC(=O)[C@H](Cc2c[nH]c3ccccc23)NC(=O)[C@H](CO)NC(=O)[C@@H](CCN)NC(=O)[C@H](CCC(=O)N[C@@H](CCN)C(=O)N[C@@H](CCO)C(=O)N[C@@H](CN)C(=O)N[C@H]2CCNC(=O)[C@H]([C@@H](C)O)NC(=O)[C@H](CCN)NC(=O)[C@H](CCN)NC(=O)[C@H](CC(C)C)NC(=O)[C@@H](CC(C)C)NC(=O)[C@H](CCN)NC2=O)NC(=O)[C@H](CCN)NC(=O)[C@H](Cc2ccc(O)cc2)NC1=O)C(C)C [Ex. 308] (I: Ac-VCY[Dab]E[dDab]SWSVCS-NH2 / II: [Dab][hSer][Dap][Dab][Dab][dL]L[Dab][Dab]T; disulfide I:2-I:11; amide I:5-II:N; lactam II:4-II:C)	0.125	0.125	0.0625	0.5 (≈ 0.208 µM)	1 (≈ 0.417 µM)	1 (≈ 0.417 µM)	0.5 (≈ 0.208 µM)	0.25	<1
CC(=O)N[C@H](C(=O)N[C@H]1CSSC[C@@H](C(=O)N[C@@H](CO)C(N)=O)NC(=O)[C@H](C(C)C)NC(=O)[C@H](CO)NC(=O)[C@H](Cc2c[nH]c3ccccc23)NC(=O)[C@H](CO)NC(=O)[C@@H](CCN)NC(=O)[C@H](CCC(=O)N[C@@H](CCN)C(=O)N[C@H](C(=O)N[C@@H](CN)C(=O)N[C@H]2CCNC(=O)[C@H]([C@@H](C)O)NC(=O)[C@H](CCN)NC(=O)[C@H](CCN)NC(=O)[C@H](C(C)C)NC(=O)[C@@H](CC(C)C)NC(=O)[C@H](CCN)NC2=O)[C@@H](C)O)NC(=O)[C@H](CCN)NC(=O)[C@H](Cc2ccc(O)cc2)NC1=O)C(C)C [Ex. 312] (I: Ac-VCY[Dab]E[dDab]SWSVCS-NH2 / II: [Dab]T[Dap][Dab][Dab][dL]V[Dab][Dab]T; disulfide I:2-I:11; amide I:5-II:N; lactam II:4-II:C)	0.125	0.03125	0.03125	0.25 (≈ 0.105 µM)	0.125 (≈ 0.0524 µM)	0.0625 (≈ 0.0262 µM)	0.0625 (≈ 0.0262 µM)	0.0625	<1
CCC[C@@H]1NC(=O)[C@@H](CC(C)C)NC(=O)[C@H](CCN)NC(=O)[C@@H](NC(=O)[C@H](CN)NC(=O)[C@@H](NC(=O)[C@H](CCN)NC(=O)CC[C@@H]2NC(=O)[C@H](CCN)NC(=O)[C@H](Cc3ccc(O)cc3)NC(=O)[C@@H](NC(=O)[C@@H](NC(C)=O)C(C)C)CSSC[C@@H](C(=O)N[C@@H](CO)C(N)=O)NC(=O)[C@H](C(C)C)NC(=O)[C@H](CO)NC(=O)[C@H](Cc3c[nH]c4ccccc34)NC(=O)[C@H](CO)NC(=O)[C@@H](CCN)NC2=O)[C@@H](C)O)CCNC(=O)[C@H]([C@@H](C)O)NC(=O)[C@H](CCN)NC(=O)[C@H](CCN)NC1=O [Ex. 313] (I: Ac-VCY[Dab]E[dDab]SWSVCS-NH2 / II: [Dab]T[Dap][Dab][Dab][dL][Nva][Dab][Dab]T; disulfide I:2-I:11; amide I:5-II:N; lactam II:4-II:C)	0.125	0.03125	0.01562	0.125 (≈ 0.0524 µM)	0.125 (≈ 0.0524 µM)	0.0625 (≈ 0.0262 µM)	0.125 (≈ 0.0524 µM)	0.0625	<1
CC(=O)N[C@@H](CC(C)C)C(=O)N[C@H]1CSSC[C@@H](C(=O)N[C@@H](CO)C(N)=O)NC(=O)[C@H](C(C)C)NC(=O)[C@H](CO)NC(=O)[C@H](Cc2c[nH]c3ccccc23)NC(=O)[C@H](CO)NC(=O)[C@@H](CCN)NC(=O)[C@H](CCC(=O)N[C@@H](CCN)C(=O)N[C@H](C(=O)N[C@@H](CN)C(=O)N[C@H]2CCNC(=O)[C@H]([C@@H](C)O)NC(=O)[C@H](CCN)NC(=O)[C@H](CCN)NC(=O)[C@H](CC(C)C)NC(=O)[C@@H](CC(C)C)NC(=O)[C@H](CCN)NC2=O)[C@@H](C)O)NC(=O)[C@H](CCN)NC(=O)[C@H](Cc2ccc(O)cc2)NC1=O [Ex. 314] (I: Ac-LCY[Dab]E[dDab]SWSVCS-NH2 / II: [Dab]T[Dap][Dab][Dab][dL]L[Dab][Dab]T; disulfide I:2-I:11; amide I:5-II:N; lactam II:4-II:C)	0.25	0.01562	0.01562	0.0625 (≈ 0.0259 µM)	0.125 (≈ 0.0518 µM)	0.125 (≈ 0.0518 µM)	0.0625 (≈ 0.0259 µM)	0.125	2
CC[C@H](C)[C@@H]1NC(=O)[C@H](CO)NC(=O)[C@H](Cc2c[nH]c3ccccc23)NC(=O)[C@H](CO)NC(=O)[C@@H](CCN)NC(=O)[C@H](CCC(=O)N[C@@H](CCN)C(=O)N[C@H](C(=O)N[C@@H](CN)C(=O)N[C@H]2CCNC(=O)[C@H]([C@@H](C)O)NC(=O)[C@H](CCN)NC(=O)[C@H](CCN)NC(=O)[C@H](CC(C)C)NC(=O)[C@@H](CC(C)C)NC(=O)[C@H](CCN)NC2=O)[C@@H](C)O)NC(=O)[C@H](CCN)NC(=O)[C@H](Cc2ccc(O)cc2)NC(=O)[C@@H](NC(=O)[C@@H](NC(C)=O)C(C)C)CSSC[C@@H](C(=O)N[C@@H](CO)C(N)=O)NC1=O [Ex. 315] (I: Ac-VCY[Dab]E[dDab]SWSICS-NH2 / II: [Dab]T[Dap][Dab][Dab][dL]L[Dab][Dab]T; disulfide I:2-I:11; amide I:5-II:N; lactam II:4-II:C)	0.0625	0.01562	0.01562	0.0625 (≈ 0.0259 µM)	0.0625 (≈ 0.0259 µM)	0.125 (≈ 0.0518 µM)	0.0625 (≈ 0.0259 µM)	0.0625	2
